Data set [1] is described as follows: clinical. As to conditions: human, in vivo, po, 5 mg. As to the method:
The conditions used were as follows:
Quantitation was based on peak area ratio of the analytes versus their stable labeled internal standards. A weighted (1/C2), linear regression was performed to determine the concentration of the analytes. All regressions and figures presented in this validation report were generated by MDS Sciex Analyst version 1.4.2 and Thermo Electron Corporation Watson LIMS software, version 7.0.0.01b. […] Select receptors were analyzed in ligand-induced intracellular calcium mobilization.

Data set [2] is described as follows: clinical. Particulars: human, in vivo, 2.4 mg. The method, then:
Treatment A: A single dose of one TNX-102 2.4 mg SL tablet (with phosphate). Subjects were asked to keep the tablet under the tongue until dissolved and not to crush or chew it. Subjects were asked not to drink any water until at least 1 hour after dosing.
Treatment B: A single dose of one TNX-102-A 2.4 mg SL tablet (without phosphate). Subjects were asked to keep the tablet under the tongue until dissolved and not to crush or chew it. Subjects were asked not to drink any water until at least 1 hour after dosing.
Treatment C: A single dose of two TNX-102 2.4 mg SL tablets (with phosphate). Subjects will be asked to keep the tablets under the tongue until dissolved and not to crush or chew them. Subjects were asked not to drink any water until at least 1 hour after dosing.
Subjects were asked to swallow the administered tablet whole and not to crush or chew it.
Partial AUC at different times were calculated to examine the effect of sublingual administration on absorption.

For data set [3] the following is noted: cited from earlier work.
For data set [4] the following is noted: Beagle; for plasma level adjusted to 0.14 mg/kg: Hucker IV. As to the method:
Doses were expressed as free base, and so should be adjusted by MW Free Base 275 g/mole/MW HCl salt 312 g/mole. […] In our Beagle studies, the dose was 0.14 mg/kg, which is approximately 1/12.6 the dose of the Hucker studies.

For data set [5] the following is noted: humans, cited from earlier work.
Data set [6] concerns the target T1, muscarinic M1 receptor (Homo sapiens, UniProt P11229).
T1 sequence (P11229 1-460): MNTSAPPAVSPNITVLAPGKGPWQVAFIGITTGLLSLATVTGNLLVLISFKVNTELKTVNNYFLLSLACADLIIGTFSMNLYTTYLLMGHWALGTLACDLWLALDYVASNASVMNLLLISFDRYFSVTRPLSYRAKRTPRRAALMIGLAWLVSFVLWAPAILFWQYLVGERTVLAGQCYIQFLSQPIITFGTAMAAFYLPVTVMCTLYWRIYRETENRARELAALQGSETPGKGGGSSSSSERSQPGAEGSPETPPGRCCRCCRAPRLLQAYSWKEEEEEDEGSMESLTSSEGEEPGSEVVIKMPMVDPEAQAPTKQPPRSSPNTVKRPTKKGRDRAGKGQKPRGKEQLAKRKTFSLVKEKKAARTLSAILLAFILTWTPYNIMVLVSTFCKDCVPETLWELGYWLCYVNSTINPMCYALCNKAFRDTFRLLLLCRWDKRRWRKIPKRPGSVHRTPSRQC

The target in data set [7] is T2, muscarinic M2 receptor (Homo sapiens, UniProt P08172). Description: G-protein-dependent signal transduction, intracellular Ca2+ mobilization.
Data set [8] addresses T2, muscarinic M2 receptor. The data set can be described thus: Equilibrium receptor binding, recombinant human receptor. On the set-up: expressed in transfected cells.

Like-named read-outs stand apart in the source and are kept apart here.

T2 sequence (P08172 whole entry): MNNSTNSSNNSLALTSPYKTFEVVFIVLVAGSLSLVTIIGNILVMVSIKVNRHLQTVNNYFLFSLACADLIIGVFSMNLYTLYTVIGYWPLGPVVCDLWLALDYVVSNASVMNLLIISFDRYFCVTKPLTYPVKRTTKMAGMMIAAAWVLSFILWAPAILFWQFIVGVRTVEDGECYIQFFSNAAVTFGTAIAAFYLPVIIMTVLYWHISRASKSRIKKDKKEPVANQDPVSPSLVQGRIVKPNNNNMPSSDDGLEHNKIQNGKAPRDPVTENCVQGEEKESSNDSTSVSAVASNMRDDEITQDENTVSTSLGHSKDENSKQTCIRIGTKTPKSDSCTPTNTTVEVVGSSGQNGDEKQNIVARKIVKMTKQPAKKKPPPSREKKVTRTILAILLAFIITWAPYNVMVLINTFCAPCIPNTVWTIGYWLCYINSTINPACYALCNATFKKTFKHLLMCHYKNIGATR

One may read the AUC(0-t) as exposure summed from dosing to a finite time, without extrapolation to infinity. The AUC(0-inf) is the area under the concentration-time curve extrapolated to infinity. A high value points to more exposure. Broadly, the Cmax is the maximum level reached in the sampled fluid or tissue. As to `CN(C)CCC=C1c2ccccc2C=Cc2ccccc21` [cyclobenzaprine, 3-(5H-dibenzo[a,d]cyclohepten-5-ylidene)-N,N-dimethyl-1-propanamine], the AUC(0-t) in data set [1] is 92.2 ± 29.9 ng·h/mL; in data set [2] (AUC0-20min), approximately 0.04 ng·h/mL; in data set [2] (AUC0-30min), approximately 0.13 ng·h/mL; in data set [2] (AUC0-45min) it was approximately 0.33 ng·h/mL; in data set [2] (AUC0-1 h), approximately 0.61 ng·h/mL; in data set [2] (AUC0-2 h) it was approximately 2.1 ng·h/mL. In addition, the AUC(0-t) in data set [2] (AUC0-3 h) is approximately 3.93 ng·h/mL; in data set [2] (AUC0-4 h) it was approximately 6.27 ng·h/mL; in data set [2] (AUC0-5.5 h), approximately 10.1 ng·h/mL; in data set [2] (AUC0-6 h) it was approximately 11.3 ng·h/mL; in data set [2] (AUC0-8 h), approximately 15.1 ng·h/mL; in data set [2] (AUC0-12 h), approximately 50.3 ng·h/mL. For the same compound, in data set [2] (AUC0-[…] (second mention, after AUC0-[…])), the AUC(0-t) is approximately 8.81 ng·h/mL. Besides, the AUC(0-inf) in data set [2] was approximately 61 ng·h/mL. In data set [2], the Cmax is approximately 2.74 ng/mL. The “plasma level (radioactive equivalents)” value in data set [3] (Beagles, 1.76 mg/kg by mouth, 1 hr (Hucker)) is 1.14 μg/ml [equivalent]; in data set [3] (Beagles, 1.76 mg/kg by mouth, 2 hr (Hucker)), 1.46 μg/ml [equivalent]; in data set [3] (Beagles, 1.76 mg/kg by mouth, 4 hr (Hucker)) it was 0.92 μg/ml [equivalent]; in data set [3] (Beagles, 1.76 mg/kg by mouth, 6 hr (Hucker)), 0.58 μg/ml [equivalent]; in data set [3] (Beagles, 1.76 mg/kg by mouth, 24 hr (Hucker)), 0.10 μg/ml [equivalent]; in data set [3] (Beagles, 1.76 mg/kg cyclobenzaprine HCl by mouth, 0.5 h (Hucker)), 0.72 μg/ml [equivalent]. Also, the “plasma level (radioactive equivalents)” value is 0.43 μg/ml [equivalent] in data set [3] (dogs, 2 mg/kg intravenous in saline, 0.5 h (Hucker)); 0.53 μg/ml [equivalent] in data set [3] (dogs, 2 mg/kg intravenous in saline, 1 hr (Hucker)); 0.60 μg/ml [equivalent] in data set [3] (dogs, 2 mg/kg intravenous in saline, 2 hr (Hucker)); 0.55 μg/ml [equivalent] in data set [3] (dogs, 2 mg/kg intravenous in saline, 4 hr (Hucker)); 0.45 μg/ml [equivalent] in data set [3] (dogs, 2 mg/kg intravenous in saline, 6 hr (Hucker)); 0.12 μg/ml [equivalent] in data set [3] (dogs, 2 mg/kg intravenous in saline, 24 hr (Hucker)). Also, the “plasma level, Hucker dose adjusted for 0.14 mg/kg” value in data set [3] (IV (saline), t 0.5 h) was 34.1 ng/mL; in data set [3] (IV (saline), t 1 h), 42.1 ng/mL; in data set [3] (IV (saline), t 2 h), 47.6 ng/mL; in data set [3] (IV (saline), t 4 h) it was 43.7 ng/mL; in data set [3] (IV (saline), t 6 h), 35.7 ng/mL; in data set [3] (IV (saline), t 24 h), 9.5 ng/mL. Further, the “plasma level, Hucker dose adjusted for 0.14 mg/kg” value in data set [3] (PO (gelatin capsule), t 0.5 h) was 57.1 ng/mL; in data set [3] (PO (gelatin capsule), t 1 h), 90.5 ng/mL; in data set [3] (PO (gelatin capsule), t 2 h), 115.9 ng/mL; in data set [3] (PO (gelatin capsule), t 4 h) it was 73.0 ng/mL; in data set [3] (PO (gelatin capsule), t 6 h) it was 46.0 ng/mL; in data set [3] (PO (gelatin capsule), t 24 h) it was 7.9 ng/mL. Further, the “plasma level adjusted to 0.14 mg/kg” value in data set [4] (0.5 h) amounted to 34.1 ng/mL; in data set [4] (2 hours) it was 47.6 ng/mL; in data set [4] (6 h), 35.7 ng/mL. In addition, in data set [4] (Hucker PO gelatin capsule, at 2 hours), the “peak plasma level adjusted to 0.14 mg/kg” value was found to be 115.9 ng/mL. In addition, the “upper limit for the half-life of the first phase (distribution out of plasma)” value in data set [5] (IV bolus) was 3 to 5 min. Further, the “amount in plasma as % of the theoretical initial concentration (Cinit)” value in data set [5] (within 3 to 30 minutes after IV bolus) was “less than 5%”.
The IC50 is the concentration at which inhibition is half-maximal. A higher IC50 goes with weaker potency in that assay. Usually Ki stands for a measure of affinity in units of concentration, obtained from inhibition or displacement. In the case of `CNCCC=C1c2ccccc2C=Cc2ccccc21` [norcyclobenzaprine, 3-(5H-dibenzo[a,d]cyclohepten-5-ylidene)-N-methyl-1-propanamine], the “Hill plot ratio (Hill slope)” value in data set [6] is on record as 0.70. Moreover, it took 33 nM to reach half-maximal inhibition in data set [7] (IC50). For the same compound, the Ki in data set [8] was determined as 76 nM.

(Values after patent US20260232578A1, “COMPOSITIONS AND METHODS FOR TRANSMUCOSAL ABSORPTION” (Tonix Pharma Limited, priority 2012, published 2026).)
